# Results from patent publication US20250129430A1, “HIGH ATP-AFFINITY PROTEIN AS THERAPEUTIC TARGET FOR INTRACTABLE CANCER MOLECULAR SUBTYPES AND INHIBITOR THEREOF” (VeraVerse Co., Ltd., priority 2021, published 2025).
# Columns and labels:
# Assay in all cases: Cell viability drug screen, 12-point dose-response AUC
# Assay type in all cases: cell-based, human
# [1] = test system: NCC59; details: NCC59 cells; 72 hours
# Protocol: (§1) An FDA-approved small-molecule pharmacological compound (#L1300) and an anticancer compound for research (#L2000) were purchased from Selecckchem and a 10 mM solution was prepared in DMSO. A total of 1,345 compounds were tested the cell viability of the seven EMT gastric cancer cell lines.
# (§2) Cells cultured for cell-based drug assay were inoculated into a 96-well white optical plate (Corning) at 5×10^3 cells per well. After 24 hours after inoculation, a 2.5 MJT (primary screen) or a half-log 12-serial diluent (secondary screen) of the pharmacological compound contained in DMSO is added to the cells with a robot using a BioMek FXp liquid processor (Beckman) to add to the cells at 50 mM. The final drug concentration in the 5 ns range and the DMSO specification control (0.5%) were calculated. The cells were then further incubated at 37° C. in a 5% CO2 incubator for 72 hours prior to measuring cell viability using the extra-GLO assay kit (Promega). The luminescent properties were measured after 15 min incubation at room temperature using a plate stacker equipped with a plate stacker. The normalized viability for the DMSO-based control was measured to generate a cell line-specific 12-point dose-response curve for each pharmacological compound, and then the area under the curve (AUC) was calculated using a trapezoidal method. […] The results of the repeated experiments were averaged to generate AUC values for each cell line for each compound.
# [2] = test system: NCC19; details: NCC19 cells; 72 hours
# Protocol: as §1, §2
# [3] = test system: YCC2; details: YCC2 cells; 72 hours
# Protocol: as §1, §2
# [4] = test system: SNU1; details: SNU1 cells; 72 hours
# Protocol: as §1, §2
# [5] = test system: Hs746T; details: Hs746T cells (SEM subtype); 72 hours
# Protocol: as §1, §2
# [6] = test system: SNU1967; details: SNU1967 cells; 72 hours
# Protocol: as §1, §2
# [7] = test system: SNU16; details: SNU16 cells; 72 hours
# Protocol: as §1, §2
# [8] = test system: SNU668; details: SNU668 cells (SEM subtype); 72 hours
# Protocol: as §1, §2
# [9] = test system: OCUM1; details: OCUM1 cells; 72 hours
# Protocol: as §1, §2
# [10] = test system: SK4; details: SK4 cells (SEM subtype); 72 hours
# Protocol: as §1, §2
# [11] = test system: SNU620; details: SNU620 cells; 72 hours
# Protocol: as §1, §2
# [12] = test system: KATO3; details: KATO3 cells; 72 hours
# Protocol: as §1, §2
# [13] = test system: SNU484; details: SNU484 cells (SEM subtype); 72 hours
# Protocol: as §1, §2
# [14] = test system: YCC3; details: YCC3 cells; 72 hours
# Protocol: as §1, §2
# [15] = test system: SNU1750; details: SNU1750 cells (SEM subtype); 72 hours
# Protocol: as §1, §2
# [16] = test system: AGS; details: AGS cells (non-SEM subtype); 72 hours
# Protocol: as §1, §2
# [17] = test system: SNU216; details: SNU216 cells (non-SEM subtype); 72 hours
# Protocol: as §1, §2
# [18] = test system: NCI_N87; details: NCI_N87 cells; 72 hours
# Protocol: as §1, §2
# [19] = test system: NCC20; details: NCC20 cells; 72 hours
# Protocol: as §1, §2
# [20] = test system: MKN28; details: MKN28 cells; 72 hours
# Protocol: as §1, §2
# [21] = test system: MKN45; details: MKN45 cells (non-SEM subtype); 72 hours
# Protocol: as §1, §2
# [22] = test system: SNU638; details: SNU638 cells; 72 hours
# Protocol: as §1, §2
# [23] = test system: YCC11; details: YCC11 cells (SEM subtype); 72 hours
# Protocol: as §1, §2
# [24] = test system: SNU719; details: SNU719 cells; 72 hours
# Protocol: as §1, §2
# [25] = test system: SNU601; details: SNU601 cells; 72 hours
# Protocol: as §1, §2
# [26] = test system: NCC24; details: NCC24 cells; 72 hours
# Protocol: as §1, §2
# [27] = test system: MKN1; details: MKN1 cells; 72 hours
# Protocol: as §1, §2
# [28] = test system: MKN74; details: MKN74 cells; 72 hours
# Protocol: as §1, §2
# [29] = test system: FU97; design: Average Area Under the Viability Curve (AUC), AUC norm value: scale not given here; details: FU97 cells; 72 hours
# Method in brief: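 Trapezoidal AUC of a 12-point, DMSO-normalized dose-response curve. Luminescent viability was measured after 72 h of exposure at 37° C to half-log serial dilutions (0.5% DMSO control), dosed 24 h after plating FU97 cells at 5×10^3 per well.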
SMILES,"Average Area Under the Viability Curve (AUC), AUC norm value [1]","Average Area Under the Viability Curve (AUC), AUC norm value [2]","Average Area Under the Viability Curve (AUC), AUC norm value [3]","Average Area Under the Viability Curve (AUC), AUC norm value [4]","Average Area Under the Viability Curve (AUC), AUC norm value [5]","Average Area Under the Viability Curve (AUC), AUC norm value [6]","Average Area Under the Viability Curve (AUC), AUC norm value [7]","Average Area Under the Viability Curve (AUC), AUC norm value [8]","Average Area Under the Viability Curve (AUC), AUC norm value [9]","Average Area Under the Viability Curve (AUC), AUC norm value [10]","Average Area Under the Viability Curve (AUC), AUC norm value [11]","Average Area Under the Viability Curve (AUC), AUC norm value [12]","Average Area Under the Viability Curve (AUC), AUC norm value [13]","Average Area Under the Viability Curve (AUC), AUC norm value [14]","Average Area Under the Viability Curve (AUC), AUC norm value [15]","Average Area Under the Viability Curve (AUC), AUC norm value [16]","Average Area Under the Viability Curve (AUC), AUC norm value [17]","Average Area Under the Viability Curve (AUC), AUC norm value [18]","Average Area Under the Viability Curve (AUC), AUC norm value [19]","Average Area Under the Viability Curve (AUC), AUC norm value [20]",further results
"CC[C@@H]1C(=O)N(C)c2cnc(Nc3ccc(C(=O)N[C@H]4CC[C@H](N5CCN(CC6CC6)CC5)CC4)cc3OC)nc2N1C(C)C [BI6727 (Volasertib), Volasertib]",3.198,3.256,−0.09826,−0.487,2.378,−0.1645,0,0.1516,2.405,−0.9263,−0.4098,3.3921,−0.03282,3.488,−0.5962,−1.0975,1.868,−0.3929,0.5594,−1.335,"Average Area Under the Viability Curve (AUC), AUC norm value [21]: 0.5875; Average Area Under the Viability Curve (AUC), AUC norm value [22]: 0.3626; Average Area Under the Viability Curve (AUC), AUC norm value [23]: −0.7997; Average Area Under the Viability Curve (AUC), AUC norm value [24]: 3.74; Average Area Under the Viability Curve (AUC), AUC norm value [25]: 0.4757; Average Area Under the Viability Curve (AUC), AUC norm value [26]: −0.9502; Average Area Under the Viability Curve (AUC), AUC norm value [27]: −0.162; Average Area Under the Viability Curve (AUC), AUC norm value [28]: −0.01134; Average Area Under the Viability Curve (AUC), AUC norm value [29]: 0.3078"
CC[C@@H]1C(=O)N(C)c2cnc(Nc3ccc(C(=O)NC4CCN(C)CC4)cc3OC)nc2N1C1CCCC1 [BI 2536],3.556,3.475,−0.1875,−1.064,1.951,0.0237,0.02031,−0.4211,2.226,−1.128,−1.078,4.704,0,3.315,−0.8076,−1.22,2.038,−1.006,0.5722,−1.69,"Average Area Under the Viability Curve (AUC), AUC norm value [21]: 0.09661; Average Area Under the Viability Curve (AUC), AUC norm value [22]: 0.1863; Average Area Under the Viability Curve (AUC), AUC norm value [23]: −0.3817; Average Area Under the Viability Curve (AUC), AUC norm value [24]: 3.291; Average Area Under the Viability Curve (AUC), AUC norm value [25]: 0.0215; Average Area Under the Viability Curve (AUC), AUC norm value [26]: −0.8832; Average Area Under the Viability Curve (AUC), AUC norm value [27]: −0.2123; Average Area Under the Viability Curve (AUC), AUC norm value [28]: −0.6584; Average Area Under the Viability Curve (AUC), AUC norm value [29]: −0.4841"
"O=C(/C=C/c1cccc(S(=O)(=O)Nc2ccccc2)c1)NO [Belinostat (PXD101), Belinostat]",2.683,1.206,0.1706,0.1147,0.5598,−0.3122,−1.577,0.6908,−0.225,−0.3048,−1.0681,0.7544,0.9966,1.065,−0.902,−0.9372,−0.2541,0.02343,0,−0.3952,"Average Area Under the Viability Curve (AUC), AUC norm value [21]: 2.493; Average Area Under the Viability Curve (AUC), AUC norm value [22]: −0.5011; Average Area Under the Viability Curve (AUC), AUC norm value [23]: −0.5556; Average Area Under the Viability Curve (AUC), AUC norm value [24]: 2.329; Average Area Under the Viability Curve (AUC), AUC norm value [25]: 1.495; Average Area Under the Viability Curve (AUC), AUC norm value [26]: −1.095; Average Area Under the Viability Curve (AUC), AUC norm value [27]: 0.9981; Average Area Under the Viability Curve (AUC), AUC norm value [28]: −0.1835; Average Area Under the Viability Curve (AUC), AUC norm value [29]: −0.9726"
